Assays:
[1] = Water/octanol partition of nitroxides, ratio determined by EPR; assay type: physicochemical; conditions: Octanol:water
Description: CHD, 2-spirocyclohexane doxyl(2-spirocyclohexane-5,5-dimethyl-3-oxazolidinoxyl) and OXANO, 2-ethyl-2,5,5-trimethyl-3-oxazolidine-1-oxyl as well as other nitroxides were synthesized as described by Keana et al (J. Am. Chem. Soc., 89, 3055-3056, 1967) For the general synthesis of the cyclic amines, the appropriate starting ketone was reacted with 2-amino-2-methyl-1-propanol in benzene in the presence of catalytic amounts of p-toluene sulfonic acid. As the cyclic structure formed, water was eliminated. The volume of water collected in a Dean Stark apparatus was monitored and used to gauge the reaction progress. The amines thus produced were purified through fractional distillation under reduced pressure, characterized by 220 MHz ^1H NMR, IR, UV, either EI or CI mass spectroscopy, and subsequently oxidized to the corresponding nitroxides using m-chloroperbenzoic acid. The nitroxides were purified by silica flash chromatography (Still et al, J. Org. Chem., 43, 2923-2925, 1978). Water/octanol ratios were determined by placing a quantity of nitroxide in water+octanol within a separatory funnel. The mixture was shaken thoroughly and allowed to separate for 15 min, whereupon aliquots were taken from both fractions and the ratio of nitroxide distribution was determined using electron paramagnetic resonance (EPR) spectroscopy, by comparing the intensities of signal obtained under N2.

[2] = tested on: Chinese hamster V79 cells; assay: Protection of cells exposed to H2O2 under hypoxic conditions; assay type: cell-based; conditions: 600 μM H2O2, 1 h, 37° C.
Protocol: Some studies required exposure to H2O2 under hypoxic conditions. For these studies, cells dispersed in 1.8 ml of medium were plated into specially designed glass flasks (Russo et al, Radiat. Res., 103, 232-239, 1985). The flasks were sealed with soft rubber stoppers, and 19-gauge needles were pushed through to act as entrance and exit ports for a humidified gas mixture of 95% nitrogen/5% CO2 (Matheson Gas Products). […] Stoppered flasks were connected in series and mounted on a reciprocating platform and gassed at 37° C. for 45 min. […] After 45 min of gassing, the hypoxic H2O2 solution was added to the cell monolayer culture. The cells were exposed to H2O2 for 1 h under hypoxic conditions. N2 gas flow was maintained during the H2O2 exposure. In parallel flasks, DF and CHD were added as described above, and were present during the entire gassing procedure. Following treatment, cell survival was assessed as described above.

With `CC1(C)CN([O])C2(CCCCC2)O1` [CHD, 2-spirocyclohexane-5,5-dimethyl-3-oxazolidinoxyl] as the compound, how does the Partition coefficient [1] read?
The Partition coefficient was 80.

And the “protection against H2O2 cytotoxicity under hypoxic conditions” value [2]?
Its value is “protects”.

— patent publication US6605619B1, “Nitroxides as protectors against oxidatives stress” (The United States of America as represented by the …, priority 1992, dated 2003)
